Source: ChEMBL document CHEMBL1201862, “PubChem BioAssay data set” (2004)
The source made the active and inactive calls.

How the values were obtained:
Bcl-2-like protein 10 = biological target: T1, Bcl-2-like protein 10 (Homo sapiens, UniProt Q9HD36); assay: Bcl-B/TR3 peptide binding disruption – biochemical, fluorescence polarization, FITC-TR3 peptide, selectivity assay for Bfl-1 inhibitor project, primary screen (AID 748);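 note: fluorescence polarization from a fluorescein-labelled TR3 peptide binding purified Bcl-B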
T1 sequence (Q9HD36 whole entry): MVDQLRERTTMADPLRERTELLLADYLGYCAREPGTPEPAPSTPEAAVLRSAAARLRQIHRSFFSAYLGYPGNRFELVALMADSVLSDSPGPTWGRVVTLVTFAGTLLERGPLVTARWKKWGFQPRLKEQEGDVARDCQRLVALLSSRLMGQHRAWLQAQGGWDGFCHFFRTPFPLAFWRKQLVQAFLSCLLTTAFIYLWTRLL

[1] = biological target: T2, Alkaline phosphatase, tissue-nonspecific isozyme (Homo sapiens, UniProt P05186)
T2 sequence (P05186 whole entry): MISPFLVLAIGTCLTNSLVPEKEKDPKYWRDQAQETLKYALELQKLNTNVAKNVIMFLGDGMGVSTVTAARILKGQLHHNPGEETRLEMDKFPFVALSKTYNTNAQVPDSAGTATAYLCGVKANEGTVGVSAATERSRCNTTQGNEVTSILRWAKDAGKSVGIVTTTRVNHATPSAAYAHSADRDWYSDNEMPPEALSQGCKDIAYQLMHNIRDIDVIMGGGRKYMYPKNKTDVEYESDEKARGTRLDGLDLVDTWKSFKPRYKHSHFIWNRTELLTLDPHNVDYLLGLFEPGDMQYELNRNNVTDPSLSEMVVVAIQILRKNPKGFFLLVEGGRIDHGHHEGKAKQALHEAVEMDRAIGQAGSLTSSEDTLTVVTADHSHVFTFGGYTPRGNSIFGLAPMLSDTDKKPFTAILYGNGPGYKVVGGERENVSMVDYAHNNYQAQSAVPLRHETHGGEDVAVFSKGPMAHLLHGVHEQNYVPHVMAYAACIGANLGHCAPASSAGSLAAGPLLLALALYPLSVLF

[2] = biological target: T3, Eukaryotic translation initiation factor 2-alpha kinase 3 (Homo sapiens, UniProt Q9NZJ5); assay: Counterscreen assay for PERK inhibitors: Dose response cell-based high throughput screening assay to measure inhibition of PERK at 6 hours. [Related pubchem assays: 1522, 1416 ]; type: functional
T3 sequence (Q9NZJ5 whole entry): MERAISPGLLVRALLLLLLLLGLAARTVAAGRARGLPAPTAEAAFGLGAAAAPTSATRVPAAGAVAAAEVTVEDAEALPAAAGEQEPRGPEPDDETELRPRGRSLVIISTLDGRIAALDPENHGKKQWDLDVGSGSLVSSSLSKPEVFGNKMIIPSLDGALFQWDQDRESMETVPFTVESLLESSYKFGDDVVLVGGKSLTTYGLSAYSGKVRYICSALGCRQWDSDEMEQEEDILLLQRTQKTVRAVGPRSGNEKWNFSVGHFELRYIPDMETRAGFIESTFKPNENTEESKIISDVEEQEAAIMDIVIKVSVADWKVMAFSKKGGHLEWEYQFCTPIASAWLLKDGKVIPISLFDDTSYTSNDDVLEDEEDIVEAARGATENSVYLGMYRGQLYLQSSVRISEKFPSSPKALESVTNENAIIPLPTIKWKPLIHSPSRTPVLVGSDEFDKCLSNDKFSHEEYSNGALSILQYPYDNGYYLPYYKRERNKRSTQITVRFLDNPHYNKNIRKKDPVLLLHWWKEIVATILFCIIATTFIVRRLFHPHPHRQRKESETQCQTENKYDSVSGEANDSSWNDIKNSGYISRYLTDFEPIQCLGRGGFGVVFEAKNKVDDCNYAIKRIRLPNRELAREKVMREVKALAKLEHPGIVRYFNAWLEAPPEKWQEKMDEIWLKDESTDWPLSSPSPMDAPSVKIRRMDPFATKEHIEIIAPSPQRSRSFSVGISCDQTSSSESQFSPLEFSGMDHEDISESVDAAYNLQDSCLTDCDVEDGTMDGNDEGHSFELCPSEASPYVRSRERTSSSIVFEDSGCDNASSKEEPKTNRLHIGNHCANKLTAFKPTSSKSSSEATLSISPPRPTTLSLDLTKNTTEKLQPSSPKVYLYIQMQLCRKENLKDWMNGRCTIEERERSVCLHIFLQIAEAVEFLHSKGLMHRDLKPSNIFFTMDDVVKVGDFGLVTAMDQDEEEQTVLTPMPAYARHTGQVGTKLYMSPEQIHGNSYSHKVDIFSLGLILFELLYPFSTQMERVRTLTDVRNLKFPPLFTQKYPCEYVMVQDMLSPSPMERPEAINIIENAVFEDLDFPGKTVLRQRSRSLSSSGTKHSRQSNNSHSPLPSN

[3] = biological target: T3, Eukaryotic translation initiation factor 2-alpha kinase 3; assay: Dose response cell-based high-throughput screening assay to measure PERK inhibition. [Related pubchem assays: 1416 ]; type: functional
[4] = biological target: T4, Polyadenylate-binding protein 1 (Homo sapiens, UniProt P11940); assay: PABP inhibition in translation initiation, SAR follow-up (AID 435018); type: functional
T4 sequence (P11940 whole entry): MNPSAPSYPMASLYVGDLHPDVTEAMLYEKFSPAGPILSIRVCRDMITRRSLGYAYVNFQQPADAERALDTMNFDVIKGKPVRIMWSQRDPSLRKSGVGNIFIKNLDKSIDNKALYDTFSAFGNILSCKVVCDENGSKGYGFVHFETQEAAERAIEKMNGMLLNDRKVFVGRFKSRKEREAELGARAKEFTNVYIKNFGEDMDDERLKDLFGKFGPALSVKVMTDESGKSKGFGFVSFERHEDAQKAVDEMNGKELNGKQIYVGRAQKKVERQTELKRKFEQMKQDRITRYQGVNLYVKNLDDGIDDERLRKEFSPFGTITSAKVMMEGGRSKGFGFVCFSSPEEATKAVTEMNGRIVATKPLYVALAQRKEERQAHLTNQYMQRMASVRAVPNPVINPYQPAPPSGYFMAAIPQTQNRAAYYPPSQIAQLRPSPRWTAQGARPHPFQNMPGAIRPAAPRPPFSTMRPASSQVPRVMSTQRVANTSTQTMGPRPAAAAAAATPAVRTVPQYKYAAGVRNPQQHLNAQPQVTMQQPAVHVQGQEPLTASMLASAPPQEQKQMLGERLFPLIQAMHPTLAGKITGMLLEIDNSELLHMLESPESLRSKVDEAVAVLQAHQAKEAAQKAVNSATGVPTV

[5] = biological target: T4, Polyadenylate-binding protein 1; assay: blockers of PABP interaction with poly(A) – biochemical, fluorescence polarization, […] (AID 2014)
[6] = biological target: T5, Eukaryotic translation initiation factor 4H (Homo sapiens, UniProt Q15056); assay: inhibitors of translation initiation factor eIF4H – SAR follow-up (AID 435011); type: functional
[7] = biological target: T5, Eukaryotic translation initiation factor 4H; assay: eIF4H binding inhibition – biochemical, uHTS, fluorescence polarization, translation initiation inhibitor project, primary screen (AID 2012)
[8] = biological target: T6, RNA-binding protein pos-1 (Caenorhabditis elegans, UniProt G5EF15); assay: disruptors of C. elegans POS-1 RNA interaction – biochemical, fluorescence polarization, dose response (AID 1964);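 note: purified POS-1 fused to maltose binding protein made in E. coli; potency of compounds blocking POS-1 binding to fluorescent RNA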
T6 sequence (G5EF15 whole entry): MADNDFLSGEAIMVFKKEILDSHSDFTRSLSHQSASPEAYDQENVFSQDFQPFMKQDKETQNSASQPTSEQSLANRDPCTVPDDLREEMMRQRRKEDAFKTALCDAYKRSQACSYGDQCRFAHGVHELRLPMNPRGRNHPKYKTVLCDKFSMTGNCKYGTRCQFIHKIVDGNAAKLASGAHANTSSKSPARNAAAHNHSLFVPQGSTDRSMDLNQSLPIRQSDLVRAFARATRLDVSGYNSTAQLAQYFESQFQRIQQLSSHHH

Streptokinase A = biological target: T7, Streptokinase A (Streptococcus pyogenes serotype M1, UniProt P10520); assay: viability-normalized secreted streptokinase activity reduction – plasminogen activation absorbance, OD405, dose response (AID 1914); type: functional, Streptococcus pyogenes M1 GAS;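 note: secreted streptokinase activity via plasminogen activation per viability signal from cell pellet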
T7 sequence (P10520 whole entry): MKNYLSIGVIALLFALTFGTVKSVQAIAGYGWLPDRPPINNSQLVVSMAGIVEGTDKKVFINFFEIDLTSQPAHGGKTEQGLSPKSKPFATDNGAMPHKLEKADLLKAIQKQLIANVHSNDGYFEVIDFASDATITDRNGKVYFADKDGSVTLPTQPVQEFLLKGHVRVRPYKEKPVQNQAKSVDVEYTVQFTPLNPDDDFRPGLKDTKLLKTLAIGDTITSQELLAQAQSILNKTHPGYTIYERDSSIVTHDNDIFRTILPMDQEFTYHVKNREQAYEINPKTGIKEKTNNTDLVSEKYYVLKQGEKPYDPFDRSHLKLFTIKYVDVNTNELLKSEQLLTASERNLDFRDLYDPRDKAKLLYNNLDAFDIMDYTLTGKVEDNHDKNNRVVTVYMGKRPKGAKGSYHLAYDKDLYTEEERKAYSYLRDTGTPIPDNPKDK

[9] = luciferase reporter signal suppression in cells – H4 neuroglioma cells, luminescence, dose response (AID 1990); type: functional, cell-based
[10] = viability of HCT116 lacking mutant beta-catenin – cell-based, human colon tumor, dose response (AID 1045); type: functional;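 note: HCT116 colon tumor cells with beta catenin knocked out; cells exposed to compound for 60 hours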
[11] = biological target: T8, Heat shock factor protein 1 (Mus musculus, UniProt P38532); assay: decrease of HSF1-responsive luciferase luminescence – cell-based, NIH3T3, dose retest, confirmation (AID 2382); type: functional;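 note: NIH3T3 fibroblasts with HSF1-driven luciferase reporter stressed by proteasome inhibitor MG132; luminescence from HSF1-driven luciferase expression after 8 hours of MG132 stress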
T8 sequence (P38532 whole entry): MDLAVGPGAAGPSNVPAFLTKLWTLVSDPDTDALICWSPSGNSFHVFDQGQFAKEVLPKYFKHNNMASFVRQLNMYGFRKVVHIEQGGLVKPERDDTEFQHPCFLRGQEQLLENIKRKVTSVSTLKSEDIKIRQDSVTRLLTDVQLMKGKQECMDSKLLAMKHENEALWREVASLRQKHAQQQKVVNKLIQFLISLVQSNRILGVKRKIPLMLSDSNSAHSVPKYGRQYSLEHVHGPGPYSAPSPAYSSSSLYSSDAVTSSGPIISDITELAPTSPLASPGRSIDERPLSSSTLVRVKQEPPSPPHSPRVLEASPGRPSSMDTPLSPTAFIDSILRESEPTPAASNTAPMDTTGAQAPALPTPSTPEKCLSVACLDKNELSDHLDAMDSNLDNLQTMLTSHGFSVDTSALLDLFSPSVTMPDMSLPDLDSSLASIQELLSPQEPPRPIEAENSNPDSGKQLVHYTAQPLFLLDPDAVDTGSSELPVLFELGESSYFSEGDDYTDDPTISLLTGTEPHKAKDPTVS

[12] = test system: Streptococcus sp. 'group A'; assay: Streptococcus pyogenes SK(-)GAS viability under kanamycin – luminescence, BacTiterGlo, confirmation, counter-screen for streptokinase expression inhibitor project, dose response (AID 1900); type: functional, organism-based
Streptococcus = assay: GAS UMAA2166 growth inhibition – luminescence, BacTiterGlo, counter-screen for streptokinase expression inhibitor project, dose response (AID 1915); type: functional, organism-based;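 note: potency for reduction of bacterial viability or growth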
[13] = Luminescence Cell-Based Dose Response HTS to Identify Inhibitors of 5'UTR Stem-Loop Driven Prion Protein mRNA Translation in H4 Neuroglioblastoma Cells. [Related pubchem assays: 1827 (Project Summary), 1813 (Primary HTS)]; type: functional
[14] = alpha-synuclein stem-loop luciferase translation blockers – H4 neuroglioma cells, luminescence, confirmation (AID 1988); type: functional, cell-based
[15] = viability of PTEN-deleted HCT116 cells – cell-based, HCT116 PTEN knockout, dose response (AID 1047); type: functional;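 note: HCT116 colon tumor cells with PTEN knocked out; cells exposed to compound for 60 hours before readout; potency for loss of cell viability measured by luminescence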
[16] = HEK-293T viability loss after treatment – luminescence, T-cell screen hits, cytotoxicity control for TCR NF-kB inhibitor project, dose response (AID 489026); type: functional, cell-based;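 note: cells exposed to compound about 14 hours before the viability readout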
[17] = biological target: Neurotensin receptor type 1 (Homo sapiens, UniProt P30989); type: functional;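 note: Image-based confirmatory dose-response assay measuring agonist activity at NTR1; NTR1-expressing U2OS osteosarcoma cells imaged for beta-arrestin GFP spot formation; agonist potency where compounds increase beta-arrestin recruitment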
Chain of Neurotensin receptor type 1 (P30989 whole entry): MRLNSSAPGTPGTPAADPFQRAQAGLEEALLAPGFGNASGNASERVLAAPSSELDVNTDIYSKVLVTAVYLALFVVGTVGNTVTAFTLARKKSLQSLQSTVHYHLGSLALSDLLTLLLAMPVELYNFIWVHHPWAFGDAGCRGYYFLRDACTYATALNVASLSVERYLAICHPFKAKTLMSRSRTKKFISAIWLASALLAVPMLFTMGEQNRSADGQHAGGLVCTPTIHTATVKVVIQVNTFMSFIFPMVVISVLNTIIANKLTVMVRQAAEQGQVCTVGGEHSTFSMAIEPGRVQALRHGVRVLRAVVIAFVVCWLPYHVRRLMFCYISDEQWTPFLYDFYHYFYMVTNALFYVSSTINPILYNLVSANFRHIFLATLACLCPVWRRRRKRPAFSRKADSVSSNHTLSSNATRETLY

[18] = microbe, parasite or virus in culture; type: functional; settings: Mycobacterium tuberculosis
Melanocortin receptor 4 = Melanocortin receptor 4 (Homo sapiens, UniProt P32245); type: functional, cell-based;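 note: Cell-based assay with luminescence read-out, confirmatory dose-response testing for agonist activity of biased ligands at MC4R; human U2OS cells with tagged receptor and beta-arrestin; potency of agonists that increase receptor coupling to beta-arrestin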
Chain of Melanocortin receptor 4 (P32245 whole entry): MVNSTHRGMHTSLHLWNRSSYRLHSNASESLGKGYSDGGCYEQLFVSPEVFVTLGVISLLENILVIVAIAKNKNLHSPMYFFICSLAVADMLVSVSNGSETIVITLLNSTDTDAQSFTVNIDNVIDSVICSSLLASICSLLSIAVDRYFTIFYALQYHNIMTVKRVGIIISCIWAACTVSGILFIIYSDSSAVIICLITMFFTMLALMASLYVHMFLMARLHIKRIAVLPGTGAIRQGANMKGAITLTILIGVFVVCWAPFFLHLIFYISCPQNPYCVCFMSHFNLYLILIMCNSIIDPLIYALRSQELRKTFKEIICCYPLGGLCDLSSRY

INS1 = assay: INS-1E survival protection against cytokine death – cell-based, luminescence, retest, dose response (AID 449756); type: functional; settings: Rattus norvegicus;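 note: cell death triggered by IL-1 beta plus TNF-alpha plus IFN-gamma mixture; protective hits raise ATP signal compared with cytokine alone wells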
Hexokinase HKDC1 = biological target: T9, Hexokinase HKDC1 (Homo sapiens, UniProt Q2TB90); assay: inhibition of HKDC1 glucose phosphorylation – biochemical, W721R variant, dose response (AID 504729); type: functional
T9 sequence (Q2TB90 whole entry): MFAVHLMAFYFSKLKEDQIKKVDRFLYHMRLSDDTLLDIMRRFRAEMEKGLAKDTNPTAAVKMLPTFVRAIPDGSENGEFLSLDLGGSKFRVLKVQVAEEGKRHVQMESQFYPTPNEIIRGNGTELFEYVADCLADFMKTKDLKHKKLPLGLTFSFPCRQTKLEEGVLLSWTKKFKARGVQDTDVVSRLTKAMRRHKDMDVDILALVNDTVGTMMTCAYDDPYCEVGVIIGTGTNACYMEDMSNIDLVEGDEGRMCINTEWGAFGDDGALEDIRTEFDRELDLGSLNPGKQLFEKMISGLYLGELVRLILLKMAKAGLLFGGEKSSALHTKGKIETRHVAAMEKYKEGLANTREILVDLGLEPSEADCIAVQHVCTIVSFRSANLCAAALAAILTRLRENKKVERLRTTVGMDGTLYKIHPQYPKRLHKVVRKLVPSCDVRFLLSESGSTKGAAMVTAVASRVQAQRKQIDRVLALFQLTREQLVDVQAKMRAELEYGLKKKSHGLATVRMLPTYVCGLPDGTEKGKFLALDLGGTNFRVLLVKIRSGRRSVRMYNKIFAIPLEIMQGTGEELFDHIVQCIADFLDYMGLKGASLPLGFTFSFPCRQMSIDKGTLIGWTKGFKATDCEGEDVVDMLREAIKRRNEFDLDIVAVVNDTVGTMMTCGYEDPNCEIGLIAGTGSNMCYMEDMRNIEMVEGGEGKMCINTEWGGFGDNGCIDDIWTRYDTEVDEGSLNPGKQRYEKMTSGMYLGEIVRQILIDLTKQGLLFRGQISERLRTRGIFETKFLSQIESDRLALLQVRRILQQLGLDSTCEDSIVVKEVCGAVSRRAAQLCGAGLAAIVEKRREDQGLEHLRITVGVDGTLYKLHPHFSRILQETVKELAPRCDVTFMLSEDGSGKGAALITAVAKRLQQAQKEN

HeLa = assay: viability loss in HeLa cells – cell-based, 24 h, cherry-picked samples, cytotoxicity control, dose response (AID 504726); type: functional; settings: Homo sapiens;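 note: potency for cytotoxicity as loss of luminescence signal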

COc1cccc(N2CCN(Cc3ccsc3)CC2)c1
IC50 (Bcl-2-like protein 10): > 100 µM (inactive)

Cc1cc(C(=O)NNC(=O)CCCCC(=O)NNC(=O)c2cc(C)n[nH]2)[nH]n1
EC50 [1]: 15.5 µM (active)

O=C(NNc1nc2ccccc2s1)C1CC1
EC50 [2]: > 55.7 µM (not active)
EC50 [3]: > 55.7 µM (not active)

Cc1ccc(NC(=O)CN2C(=O)N/C(=C/c3ccccc3OCc3cccc(C(=O)O)c3)C2=O)cc1
IC50 [4]: > 100 µM (inactive)
IC50 [5]: > 100 µM (inactive)
IC50 [6]: 8.36 µM (active)
IC50 [7]: 11.1 µM (active)

Nc1ccc(S(=O)(=O)NNC(=O)C(=O)NNc2ccccn2)cc1
EC50 [1]: 26.5 µM (active)
EC50 [8]: 137 µM (active)

CC1=NNC(=O)/C1=C\c1cn(-c2ccccc2)nc1-c1ccc(Cl)cc1
EC50 (Streptokinase A): 4.83 µM (active)
EC50 [9]: > 30 µM (inconclusive)
EC50 [10]: 3.51 µM (active)
EC50 [11]: 6.61 µM (active)
EC50 [12]: 5 µM (active)
EC50 (Streptococcus): 14.5 µM (active)
EC50 [13]: > 60 µM (not active)
EC50 [14]: 7.48 µM (active)
EC50 [15]: 3.63 µM (active)
IC50 [16]: > 80 µM (inactive)
EC50 [17]: 16.8 µM (active)
CC50 [18]: 20.2 µM (active)
EC50 (Melanocortin receptor 4): > 89.2 µM (inactive)
AC50 (INS1): 8.09 µM (active)

Cc1cccc(N2C(=O)NC(=O)/C(=C\c3ccc4c(c3)CCCN4Cc3ccccc3)C2=O)c1
IC50 (Hexokinase HKDC1): 27.6 µM (inactive)

NNc1nnc2c3cc(F)ccc3n(Cc3ccccc3)c2n1
AC50 (HeLa): 217 µM (active)

O=C(CCCC(=O)N/N=C/c1ccccc1C(=O)O)N/N=C/c1ccccc1C(=O)O
EC50 [2]: > 55.7 µM (not active)
EC50 [3]: > 55.7 µM (not active)
